“And” between values parts separate entries of the source, which are not always exact repeats. Identical values can stand only once. Like-named read-outs stand apart in the source and are kept apart here.
How the values were obtained:
[1] = target: yellow fever virus capping enzyme (Yellow fever virus, UniProt P03314); test: biochemical; type: binding, yellow fever virus (strain 17D); settings: read-out: FP_YF_KI_AVG_YF_M
[2] = target: T1, dengue virus capping enzyme (Dengue virus type 2, UniProt P29990); test: biochemical; type: binding, dengue virus type 2 (strain 16681)
T1 sequence (P29990 2492-2758): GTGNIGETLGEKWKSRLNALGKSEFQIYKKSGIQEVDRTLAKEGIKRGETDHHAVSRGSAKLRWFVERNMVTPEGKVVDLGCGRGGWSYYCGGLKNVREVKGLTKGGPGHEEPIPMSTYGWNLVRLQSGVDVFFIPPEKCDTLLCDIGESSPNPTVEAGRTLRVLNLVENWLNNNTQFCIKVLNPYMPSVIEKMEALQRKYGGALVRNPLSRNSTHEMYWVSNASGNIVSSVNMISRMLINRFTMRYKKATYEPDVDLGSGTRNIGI

[3] = system: dengue type 2 virus subgenomic replicon (BHK-pD2hRucPac); test: Antiviral (replicon) assay, Renilla luciferase; type: cell-based; settings: Table 2-1; read-out: Replicon Assay_EC50_M
[4] = system: BHK-pD2hRucPac cells; test: Cell viability (CellTiter-Glo) in replicon assay; settings: read-out: Replicon Assay_CC50_M; Table 2-1

yellow fever virus capping enzyme, sequence (P03314 2507-2774 limits assumed): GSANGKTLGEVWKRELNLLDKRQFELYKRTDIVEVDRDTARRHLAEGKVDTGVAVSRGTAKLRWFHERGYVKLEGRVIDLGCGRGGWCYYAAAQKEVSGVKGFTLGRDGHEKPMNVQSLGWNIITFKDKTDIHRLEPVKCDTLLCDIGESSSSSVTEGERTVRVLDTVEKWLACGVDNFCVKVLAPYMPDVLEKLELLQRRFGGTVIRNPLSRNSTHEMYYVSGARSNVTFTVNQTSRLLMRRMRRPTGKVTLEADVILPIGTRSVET

Row | Structure (SMILES) | Ki [1] [µM] | Ki ([2]; read-out: FP_DEN_Ki_AVG_DEN_M) [µM] | EC50 [3] | CC50 [4] | Ki ([2]; Ki (GTP displacement)) | Ki ([2]; read-out: Ki (GTP displacement)) [µM]
1 | O=C1C(=Cc2cccc(Br)c2)SC(=S)N1CN1CCCCC1 [BG21] | 27 | 42 |  |  |  | 
2 | CC(C)(C)c1cc(C=C2SC(=S)NC2=O)cc(C(C)(C)C)c1O [BG179] | 1 | 2 | 15 µM | 20 µM |  | 
3 | CC(C)(C)c1ccc(C=C2SC(=S)N(CCC(=O)NS(C)(=O)=O)C2=O)cc1 [BG297] |  | 3 | 78 µM | 86 µM |  | 
4 | O=C(CCN1C(=O)C(=Cc2ccc(Cl)cc2)SC1=S)Nc1ccc(C(=O)O)cc1 [BG122] | 5 | 3 | 41 µM | 58 µM |  | 
5 | O=C1NC(=O)C(=Cc2cc3c(cc2[N+](=O)[O-])OCO3)S1 [BG145] | 9 | 8 |  |  |  | 
6 | O=C(O)CCN1C(=O)/C(=C/c2ccc(-c3cccc(Cl)c3)o2)SC1=S [BG188] |  |  | 51 µM | 51 µM |  | 
7 | O=C(O)CCN1C(=O)/C(=C/c2ccccc2F)SC1=S [BG-329] | ≥ 100 | ≥ 100 |  |  |  | 
8 | O=C(O)CN1C(=O)/C(=C/c2ccc(F)c(Br)c2)SC1=S [BG224] | 27 | 27 |  |  |  | 
9 | O=C(O)CN1C(=O)/C(=C/c2ccc(Cl)c(Cl)c2)SC1=S [BG-318] |  |  |  |  | 11 µM and 11.3 µM | 
10 | O=C(CN1C(=O)/C(=C/c2ccccc2F)SC1=S)Nc1cccc(C(=O)O)c1 [BG131] | 12 | 6 | 54 µM | 71 µM |  | 
11 | O=C(O)CCCN1C(=O)/C(=C/c2ccc(Cl)cc2Cl)SC1=S [BG-331] | 25 | 15 |  |  |  | 
12 | CC(C)c1ccc(/C=C2\SC(=S)N(CCC(=O)O)C2=O)cc1 [BG-322] |  |  |  |  | 12 µM | 
13 | Cc1cccc(/C=C2\SC(=S)N(CN3CCCCC3)C2=O)c1 [BG136] | 27 | 16 | 41 µM | 49 µM |  | 
14 | O=C(O)CCN1C(=O)/C(=C/c2ccc(-c3ccccc3Cl)o2)SC1=S [BG290] |  | ≥ 100 |  |  |  | 
15 | O=C(O)C(Cc1ccccc1)N1C(=O)C(=Cc2ccccc2Cl)SC1=S (racemic) [BG135] | 5 | 4 | 39 µM | 44 µM |  | 
16 | O=C1NC(=S)SC1=Cc1ccccc1OS(=O)(=O)c1ccc([N+](=O)[O-])cc1 [BG127] | 6 | 5 | 109 µM | 40 µM |  | 
17 | O=C(CCN1C(=O)/C(=C/c2ccccc2Cl)SC1=S)Nc1ccccc1C(=O)O [BG289] |  |  | 92 µM | 79 µM |  | 
18 | C=CCOc1ccc(Cl)cc1/C=C1\SC(=S)NC1=O [BG114] | 6 | 2 | 23 µM | 27 µM |  | 
19 | CCN(CC)c1ccc(N2C(=O)/C(=C/c3ccc(C(=O)O)cc3)SC2=S)cc1 [BG125] | 3 | 2 |  | 15 µM |  | 
20 | COc1ccccc1C=C1SC(=S)N(CCC(=O)O)C1=O [BG-310] | 44 |  |  | 100 µM |  | 
21 | O=C(CN1C(=O)/C(=C/c2ccccc2Cl)SC1=S)Nc1ccccc1C(=O)O [BG100] | 5 | 3 | 37 µM | 49 µM |  | 
22 | COc1ccc(N2C(=O)/C(=C/c3cc([N+](=O)[O-])cc(OC)c3O)SC2=S)cc1 [BG140] | 2 |  | 13 µM | 23 µM |  | 

Row | Structure (SMILES) | Ki [1] [µM] | Ki ([2]; read-out: FP_DEN_Ki_AVG_DEN_M) [µM] | EC50 [3] | CC50 [4] | Ki ([2]; Ki (GTP displacement)) | Ki ([2]; read-out: Ki (GTP displacement)) [µM]
23 | CN1C(=O)S/C(=C\c2ccc(-c3ccc(C(=O)O)c(Cl)c3)o2)C1=O [BG175] | 17 | 13 | 78 µM | 82 µM |  | 
24 | COc1cccc(/C=C2\SC(=S)N(CC(=O)O)C2=O)c1OC [BG311] | 34 |  |  | 100 µM |  | 
25 | O=C(O)CN1C(=O)/C(=C/c2ccccc2)SC1=S [BG-325] | ≥ 100 | ≥ 100 |  |  |  | 
26 | CC(=C1SC(=S)NC1=O)c1ccc(C)cc1 [BG137] | 25 | 19 | 55 µM | 67 µM |  | 
27 | O=C1NC(=S)SC1=Cc1cccc(Cl)c1Cl [BG333] | 12 | 7 | 9 µM | 11 µM |  | 
28 | O=C(O)CN1C(=O)/C(=C/c2cccc(Cl)c2Cl)SC1=S [BG-317] |  |  |  |  | 27 µM | 
29 | O=C(CCN1C(=O)C(=Cc2ccc(Cl)cc2)SC1=S)Nc1ccccc1C(=O)O [BG120] | 2 | 2 | 23 µM | 31 µM |  | 
30 | O=C(O)CN1C(=O)/C(=C/c2ccc(Cl)cc2Cl)SC1=S [BG-319] |  |  |  |  | 24 µM | 
31 | Cc1cc(C)cc(-n2c(C)cc(/C=C3\SC(=O)NC3=O)c2C)c1 [BG172] | 14 | 11 | 20 µM | 26 µM |  | 
32 | O=C(CCCN1C(=O)/C(=C/c2ccc(F)cc2)SC1=S)Nc1cccc(C(=O)O)c1 [BG124] | 18 | 14 | 80 µM | 56 µM |  | 
33 | CCc1ccc(C=C2SC(=O)NC2=O)cc1 [BG144] | 38 | 20 |  |  |  | 
34 | COc1ccc2nc(N3CCCCC3)c(C=C3SC(=S)NC3=O)cc2c1 [BG168] | 2 | 2 | 13 µM | 12 µM |  | 
35 | O=C(O)CN1C(=O)C(=Cc2cc(Br)cc(Cl)c2O)SC1=S [BG222] | ≥ 100 | ≥ 100 |  |  |  | 
36 | O=C1NC(=O)C(=Cc2ccc(Br)cc2)S1 [BG143] | 24 | 20 | 50 µM | 60 µM |  | 
37 | O=C(CN1C(=O)S/C(=C\c2ccccc2F)C1=O)Nc1ccccc1C(=O)O [BG142] | 51 | 23 | 102 µM | 137 µM |  | 
38 | Cc1ccc(N2C(=O)/C(=C/c3ccccc3C(=O)O)SC2=S)c(C)c1 [BG130] | 15 | 8 | 61 µM | 50 µM |  | 
39 | O=C(O)CN1C(=O)C(=Cc2ccc(Cl)cc2Cl)SC1=S [BG229] | 25 | 24 |  |  |  | 
40 | CC(C(=O)O)N1C(=O)C(=Cc2ccc(Cl)cc2Cl)SC1=S (stereo not drawn) [BG133] | 14 | 7 | 126 µM | 77 µM |  | 
41 | NC(=O)c1c(NC(=O)CN2C(=O)C(=Cc3ccc(Cl)cc3Cl)SC2=S)sc2c1CCCC2 [BG265] |  | 46 |  |  |  | 
42 | O=C(O)CN1C(=O)C(=Cc2cc(Br)ccc2F)SC1=S [BG230] | 23 | 17 |  |  |  | 
43 | O=C(O)CCN1C(=O)C(=Cc2ccc(-c3ccc(Br)cc3)o2)SC1=S [BG286] |  | ≥ 100 |  |  |  | 
44 | CCc1ccc(/C=C2\SC(=S)N(CCC(=O)Nc3ccc(C(=O)O)cc3)C2=O)cc1 [BG273] |  | 4 |  |  |  | 

Row | Structure (SMILES) | Ki [1] [µM] | Ki ([2]; read-out: FP_DEN_Ki_AVG_DEN_M) [µM] | EC50 [3] | CC50 [4] | Ki ([2]; Ki (GTP displacement)) | Ki ([2]; read-out: Ki (GTP displacement)) [µM]
45 | COC(=O)CCN1C(=O)C(=Cc2ccc(Cl)cc2Cl)SC1=S [BG-332] | ≥ 100 | ≥ 100 |  |  |  | 
46 | O=C(O)CN1C(=O)C(=Cc2cccc(Cl)c2Cl)SC1=S [BG227] | 34 | 27 |  |  |  | 
47 | O=C(O)CCN1C(=O)/C(=C/c2ccc(-c3ccc(Cl)c(Cl)c3)o2)SC1=S [BG281] |  | 2 |  |  |  | 
48 | O=C(O)CN1C(=O)C(=CC=Cc2ccccc2)SC1=S [BG326] | ≥ 100 | 77 |  |  |  | 
49 | O=C(O)CCN1C(=O)C(=Cc2ccc(Cl)c(Cl)c2)SC1=S [BG-328] | 12 | 14 |  |  |  | 13.6
50 | CCc1ccc(C=C2SC(=S)N(CCC(=O)Nc3ccccc3C(=O)O)C2=O)cc1 [BG274] |  |  | 63 µM | 60 µM |  | 
51 | O=C(O)CCN1C(=O)C(=Cc2ccccc2)SC1=S [BG-327] | ≥ 100 | ≥ 100 |  |  |  | 
52 | CC(C)c1ccc(C=C2SC(=S)N(CCC(=O)O)C2=O)cc1 [BG183] | 13 | 12 |  |  |  | 
53 | O=C(O)CN1C(=O)SC(=Cc2ccc(Cl)cc2)C1=O [BG226] | ≥ 100 |  |  |  |  | 
54 | COc1cc(C=C2SC(=S)NC2=O)ccc1OS(=O)(=O)c1ccccc1[N+](=O)[O-] [BG141] | 2 |  | 24 µM | 27 µM |  | 
55 | O=C(O)CN1C(=O)C(=Cc2cc(Cl)cc(Cl)c2O)SC1=S [BG225] | ≥ 100 | ≥ 100 |  |  |  | 
56 | O=C(O)CCN1C(=O)/C(=C/c2ccc(-c3ccc(Cl)cc3Cl)o2)SC1=S [BG177] | 1 |  | 30 µM and 26 µM | 30 µM and 31 µM |  | 
57 | O=C(CCN1C(=O)/C(=C/c2cccc(Br)c2)SC1=S)Nc1ccccc1C(=O)O [BG291] |  |  | 75 µM | 68 µM |  | 
58 | O=C(O)CCN1C(=O)C(=Cc2ccc(-c3ccccc3)o2)SC1=S [BG292] |  | ≥ 100 |  |  |  | 
59 | O=C(O)c1ccccc1/C=C1\SC(=S)N(c2cccc(C(F)(F)F)c2)C1=O [BG129] | 19 | 11 |  | 47 µM |  | 
60 | COc1ccccc1/C=C1\SC(=O)N(CC(=O)O)C1=O [BG215] |  | 866 |  | 100 µM |  | 
61 | CC(C)(C)c1ccc(/C=C2\SC(=S)N(CCC(=O)O)C2=O)cc1 [BG184] |  |  | 46 µM | 61 µM |  | 
62 | COc1ccc(OC)c(/C=C2\SC(=S)N(CC(=O)O)C2=O)c1 [BG-309] | ≥ 100 | ≥ 100 |  | 100 µM |  | 
63 | O=C(O)CCN1C(=O)C(=Cc2ccc(F)cc2)SC1=S [BG-321] | ≥ 100 | ≥ 100 |  |  |  | 
64 | CC(C)(C)c1ccc(CC2SC(=S)N(CCC(=O)O)C2=O)cc1 (racemic) [BG296] |  | 10 | 167 µM | 105 µM |  | 
65 | O=C1NC(=O)C(=Cc2ccccc2[N+](=O)[O-])S1 [BG146] | 66 | 55 |  |  |  | 
66 | O=C(O)CN1C(=O)/C(=C/c2ccc(Cl)c(Cl)c2)SC1=S [BG228] | 16 | 11 |  |  |  | 

Reference: patent US9206412B2, “Thioxothiazolidine inhibitors” (Colorado State University Research Foundation, priority 2012, dated 2015)
